Data from patent publication US11702418B2, “SOS1 inhibitors” (priority 2019, dated 2023).
Counter-ions that a name gives are not always drawn. Like-named read-outs stand apart in the source and are kept apart here.

Legend:
pERK in MKN1 cells = assay: cells; type: cell-based; settings: Homo sapiens
Method: The cells were incubated for approximately 0.5-1 hour with the compounds solubilized in DMSO at 37° C. Cells were immediately fixed by adding 50 μL of 4% formaldehyde to all wells in a fume hood and the plates were incubated for 20 minutes at room temperature. The formaldehyde was discarded from the plates and 150 μL of ice-cold methanol was added to permeabilize the cells for 10 minutes at −20° C. The methanol was discarded from each of the plates and any liquid remaining in the plate by tapping the plate against paper towels. […] The plates were incubated overnight at 4° C. on a shaker.
On Assay day 2, the primary antibody solution was removed. […] The secondary antibody solution as removed and each plate was washed with PBST 3× times. Any liquid remaining was discarded and the plate was imaged using the Licor Odyssey machine according to the manufacturer's instruction, using a set focus length at 3 mm and both 800 nm and 700 nm filters. The GAPDH normalized scan values for each well were divided by the average of vehicle wells to get the % of pERK inhibition. The IC50 values were then calculated with the Graph pad Prism software.

[1] = target: recombinant human SOS1 polypeptide (amino acids 560-1049) (Homo sapiens (Human), UniProt Q07889); assay: biochemical; type: binding; settings: read-out: Ki, Inhibition of Labeled Tracer Binding to SOS1
Sequence of recombinant human SOS1 polypeptide (amino acids 560-1049) (Q07889 560-1049): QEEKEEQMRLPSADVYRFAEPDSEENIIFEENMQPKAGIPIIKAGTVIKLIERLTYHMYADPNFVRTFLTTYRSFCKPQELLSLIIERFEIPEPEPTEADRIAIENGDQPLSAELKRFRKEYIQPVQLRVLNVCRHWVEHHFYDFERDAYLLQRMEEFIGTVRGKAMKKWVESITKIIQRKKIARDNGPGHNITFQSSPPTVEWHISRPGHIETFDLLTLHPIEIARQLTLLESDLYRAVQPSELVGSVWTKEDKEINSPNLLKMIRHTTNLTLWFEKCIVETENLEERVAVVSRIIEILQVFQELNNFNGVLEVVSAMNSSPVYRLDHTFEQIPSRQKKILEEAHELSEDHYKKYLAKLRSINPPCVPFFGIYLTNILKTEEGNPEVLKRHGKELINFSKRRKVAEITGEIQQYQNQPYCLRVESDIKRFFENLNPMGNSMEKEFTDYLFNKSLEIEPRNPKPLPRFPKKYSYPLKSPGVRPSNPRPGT

[2] = MKN-1, pERK inhibition, In-Cell Western, MKN1 or H358 cells (Table 24 does not say which), 0.5-1 hour incubation, read-out: IC50
[3] = HTRF displacement, Cy5 labelled tracer, Morrison equation for competitive binding

| Structure (SMILES) | IC50 (pERK in MKN1 cells; [2]) | further results |
| --- | --- | --- |
| Cc1c([C@@H](C)Nc2nnc(C)c3ccc(N4CCC(N(C)C)C4)cc23)cccc1C(F)(F)F (stereo in doubt) [Example 10-27, 7-((R)-3-(dimethylamino)pyrrolidin-1-yl)-4-methyl-N-((R)-1-(2-methyl-3-(trifluoromethyl)phenyl)ethyl)phthalazin-1-amine hydrochloride salt] | – | IC50 (pERK in MKN1 cells; MKN-1): 0.154 µM; Ki [1]: 0.00046 µM |
| COc1c(C#N)cccc1[C@@H](C)Nc1nnc(C)c2cnc(N3CCN4CCOCC4C3)cc12 (stereo in doubt) [Example 17-2, 3-((R)-1-((7-((R)-hexahydropyrazino[2,1-c][1,4]oxazin-8(1H)-yl)-4-methylpyrido[3,4-d]pyridazin-1-yl)amino)ethyl)-2-methoxybenzonitrile] | 0.05 µM | Ki [1, 3]: 0.0125 µM |
| CCc1ccc2c(C)nnc(N[C@H](C)c3ccc(-c4ccccc4CNC)s3)c2c1 [8-2, (R)-7-ethyl-4-methyl-N-(1-(5-(2-((methylamino)methyl)phenyl)thiophen-2-yl)ethyl)phthalazin-1-amine] | 0.605 µM | Ki [1, 3]: 0.00374 µM |
| Cc1c([C@@H](C)Nc2nncc3ccc(N4CCn5ncnc5C4)cc23)cccc1C(F)(F)F [Example 1-25, (R)-7-(5,6-dihydro-[1,2,4]triazolo[1,5-a]pyrazin-7(8H)-yl)-N-(1-(2-methyl-3-(trifluoromethyl)phenyl)ethyl)phthalazin-1-amine] | 0.047 µM | Ki [1, 3]: 0.00095 µM |
| Cc1c([C@@H](C)Nc2nncc3ccc(N4CC(=O)N(C)CC4C)cc23)cccc1C(F)(F)F (stereo partly drawn) [Example 1-26, 1,5-dimethyl-4-(4-(((R)-1-(2-methyl-3-(trifluoromethyl)phenyl)ethyl)amino)phthalazin-6-yl)piperazin-2-one] | 0.057 µM | Ki [1, 3]: 0.00116 µM |
| Cc1nc2n(c1C)CCN(c1ccc3cnnc(N[C@H](C)c4cccc(C(F)(F)F)c4C)c3c1)C2 [Example 1-28, (R)-7-(2,3-dimethyl-5,6-dihydroimidazo[1,2-a]pyrazin-7(8H)-yl)-N-(1-(2-methyl-3-(trifluoromethyl)phenyl)ethyl)phthalazin-1-amine] | 0.061 µM | Ki [1, 3]: 0.00017 µM |
| Cc1c([C@@H](C)Nc2nncc3ccc(N4CC5(CC(N(C)C)C5)C4)cc23)cccc1C(F)(F)F [Example 1-32, (R)-7-(6-(dimethylamino)-2-azaspiro[3.3]heptan-2-yl)-N-(1-(2-methyl-3-(trifluoromethyl)phenyl)ethyl)phthalazin-1-amine] | 0.101 µM | Ki [1, 3]: 0.00042 µM |
| Cc1c([C@@H](C)Nc2nncc3ccc(N4CCC5CCN(C)C5C4)cc23)cccc1C(F)(F)F (stereo partly drawn) [Example 1-33, N-((R)-1-(2-methyl-3-(trifluoromethyl)phenyl)ethyl)-7-(1-methyloctahydro-6H-pyrrolo[2,3-c]pyridin-6-yl)phthalazin-1-amine] | 0.109 µM | Ki [1, 3]: 0.0007 µM |
| Cc1c([C@@H](C)Nc2nncc3ccc(N4CCC5C(CCN5C)C4)cc23)cccc1C(F)(F)F (stereo partly drawn) [Example 1-35, N-((R)-1-(2-methyl-3-(trifluoromethyl)phenyl)ethyl)-7-(1-methyloctahydro-5H-pyrrolo[3,2-c]pyridin-5-yl)phthalazin-1-amine] | 0.123 µM | – |
| Cc1c([C@@H](C)Nc2nncc3ccc(N4CCCC(N(C)C)C4)cc23)cccc1C(F)(F)F (stereo partly drawn) [Example 1-36, 7-(3-(dimethylamino)piperidin-1-yl)-N-((R)-1-(2-methyl-3-(trifluoromethyl)phenyl)ethyl)phthalazin-1-amine] | 0.125 µM | – |
| Cc1c([C@@H](C)Nc2nncc3ccc(N4CCn5c(cnc5C)C4)cc23)cccc1C(F)(F)F [Example 1-37, (R)-N-(1-(2-methyl-3-(trifluoromethyl)phenyl)ethyl)-7-(3-methyl-5,6-dihydroimidazo[1,5-a]pyrazin-7(8H)-yl)phthalazin-1-amine] | 0.131 µM | Ki [1, 3]: 0.00025 µM |
| Cc1c([C@@H](C)Nc2nncc3ccc(N4CCC5(CCN(C)C5)C4)cc23)cccc1C(F)(F)F (stereo partly drawn) [Example 1-39, N-((R)-1-(2-methyl-3-(trifluoromethyl)phenyl)ethyl)-7-(7-methyl-2,7-diazaspiro[4.4]nonan-2-yl)phthalazin-1-amine] | 0.17 µM | – |
| Cc1c([C@@H](C)Nc2nncc3ccc(N4CCOC5(CCOC5)C4)cc23)cccc1C(F)(F)F (stereo partly drawn) [Example 1-41, N-((R)-1-(2-methyl-3-(trifluoromethyl)phenyl)ethyl)-7-(2,6-dioxa-9-azaspiro[4.5]decan-9-yl)phthalazin-1-amine] | 0.195 µM | – |
| Cc1c([C@@H](C)Nc2nncc3ccc(N4CCC5C(CCCN5C)C4)cc23)cccc1C(F)(F)F (stereo partly drawn) [Example 1-42, N-((R)-1-(2-methyl-3-(trifluoromethyl)phenyl)ethyl)-7-(1-methyloctahydro-1,6-naphthyridin-6(2H)-yl)phthalazin-1-amine] | 0.201 µM | – |
| Cc1c([C@@H](C)Nc2nncc3ccc(N4CCn5c(nc6c5CCCC6)C4)cc23)cccc1C(F)(F)F [Example 1-45, (R)-7-(3,4,6,7,8,9-hexahydrobenzo[4,5]imidazo[1,2-a]pyrazin-2(1H)-yl)-N-(1-(2-methyl-3-(trifluoromethyl)phenyl)ethyl)phthalazin-1-amine] | 0.335 µM | – |
| Cc1c([C@@H](C)Nc2nncc3ccc(N4CCn5c(nc6ccccc65)C4)cc23)cccc1C(F)(F)F [Example 1-46, (R)-7-(3,4-dihydrobenzo[4,5]imidazo[1,2-a]pyrazin-2(1H)-yl)-N-(1-(2-methyl-3-(trifluoromethyl)phenyl)ethyl)phthalazin-1-amine] | 0.341 µM | – |

| Structure (SMILES) | IC50 (pERK in MKN1 cells; [2]) | further results |
| --- | --- | --- |
| Cc1c([C@@H](C)Nc2nncc3ccc(N4CCCC(N5CCC5)C4)cc23)cccc1C(F)(F)F (stereo partly drawn) [Example 1-49, 7-(3-(azetidin-1-yl)piperidin-1-yl)-N-((R)-1-(2-methyl-3-(trifluoromethyl)phenyl)ethyl)phthalazin-1-amine] | 0.426 µM | – |
| Cc1c([C@@H](C)Nc2nncc3ccc(N4CCCCC(N(C)C)C4)cc23)cccc1C(F)(F)F (stereo partly drawn) [Example 1-50, 7-(3-(dimethylamino)azepan-1-yl)-N-((R)-1-(2-methyl-3-(trifluoromethyl)phenyl)ethyl)phthalazin-1-amine] | 0.453 µM | – |
| C[C@@H](Nc1nncc2ccc(N3CCOCC3)cc12)c1cc(-c2ccccc2CN(C)C)cs1 [Example 2-1, (R)—N-(1-(4-(2-((dimethylamino)methyl)phenyl)thiophen-2-yl)ethyl)-7-morpholinophthalazin-1-amine] | 0.308 µM | – |
| Cc1c([C@@H](C)Nc2nncc3ccc(OC4CCN(C)C4)cc23)cccc1C(F)(F)F (stereo partly drawn) [Example 2-7, N-((R)-1-(2-methyl-3-(trifluoromethyl)phenyl)ethyl)-7-((1-methylpyrrolidin-3-yl)oxy)phthalazin-1-amine] | 0.142 µM | – |
| COCCN1CCC(Oc2ccc3cnnc(N[C@H](C)c4cccc(C(F)(F)F)c4C)c3c2)CC1 [Example 2-9, (R)-7-((1-(2-methoxyethyl)piperidin-4-yl)oxy)-N-(1-(2-methyl-3-(trifluoromethyl)phenyl)ethyl)phthalazin-1-amine] | 0.172 µM | – |
| Cc1c([C@@H](C)Nc2nncc3ccc(OC4CC5CCC(C4)N5C)cc23)cccc1C(F)(F)F (stereo partly drawn) [Example 2-10, N-((R)-1-(2-methyl-3-(trifluoromethyl)phenyl)ethyl)-7-((8-methyl-8-azabicyclo[3.2.1]octan-3-yl)oxy)phthalazin-1-amine] | 0.223 µM | – |
| COc1nnc(N[C@H](C)c2cccc(C(F)(F)F)c2C)c2cc(N3CCNCC3)ccc12 [Example 9-1, (R)-4-methoxy-N-(1-(2-methyl-3-(trifluoromethyl)phenyl)ethyl)-7-(piperazin-1-yl)phthalazin-1-amine] | > 10 µM | – |
| Cc1c([C@@H](C)Nc2nnc(C)c3ccc(C4CCNCC4)cc23)cccc1C(F)(F)F [Example 10-1, (R)-4-methyl-N-(1-(2-methyl-3-(trifluoromethyl)phenyl)ethyl)-7-(piperidin-4-yl)phthalazin-1-amine] | – | IC50 (pERK in MKN1 cells; MKN-1): 0.183 µM |
| Cc1cc(C)n(-c2ccc3c(C)nnc(N[C@H](C)c4cccc(C(F)(F)F)c4C)c3c2)n1 [Example 10-14, (R)-7-(3,5-dimethyl-1H-pyrazol-1-yl)-4-methyl-N-(1-(2-methyl-3-(trifluoromethyl)phenyl)ethyl)phthalazin-1-amine] | 1.15 µM | – |
| Cc1c([C@@H](C)Nc2nnc(C)c3ccc(-n4ncc5c4CNC5)cc23)cccc1C(F)(F)F [Example 10-15, (R)-7-(5,6-dihydropyrrolo[3,4-c]pyrazol-1(4H)-yl)-4-methyl-N-(1-(2-methyl-3-(trifluoromethyl)phenyl)ethyl)phthalazin-1-amine] | 0.844 µM | – |
| Cc1c([C@@H](C)Nc2nnc(C)c3ccc(-n4cccn4)cc23)cccc1C(F)(F)F [Example 10-17, (R)-4-methyl-N-(1-(2-methyl-3-(trifluoromethyl)phenyl)ethyl)-7-(1H-pyrazol-1-yl)phthalazin-1-amine] | 2.63 µM | – |
| Cc1nnc(N[C@H](C)c2ccc(Cl)cc2Cl)c2cc(N3CCOCC3)ccc12 [Example 10-20, (R)-N-(1-(2,4-dichlorophenyl)ethyl)-4-methyl-7-morpholinophthalazin-1-amine] | 1.65 µM | – |
| Cc1nnc(N[C@H](C)c2ccc(Cl)cc2Cl)c2cc(N3CCNCC3)ccc12 [Example 10-21, (R)-N-(1-(2,4-dichlorophenyl)ethyl)-4-methyl-7-(piperazin-1-yl)phthalazin-1-amine] | 0.444 µM | – |
| Cc1c([C@@H](C)Nc2nnc(C)c3cnc(N4C[C@@H](C)O[C@@H](C)C4)cc23)cccc1C(F)(F)F [Example 12-4] | 0.37 µM | – |
| Cc1c([C@@H](C)Nc2nnc(C)c3cnc(N4C[C@@H](C)O[C@H](C)C4)cc23)cccc1C(F)(F)F [Example 12-5] | 0.85 µM | – |
| Cc1c([C@@H](C)Nc2nnc(CN)c3ccc(N4CCOCC4)cc23)cccc1C(F)(F)F [Example 14-2, (R)-4-(aminomethyl)-N-(1-(2-methyl-3-(trifluoromethyl)phenyl)ethyl)-7-morpholinophthalazin-1-amine] | – | IC50 (pERK in MKN1 cells; MKN-1, pERK inhibition, In-Cell Western, MKN1 or H358 cells (Table 24 does not say which), 0.5-1 hour incubation): 0.139 µM |
